Assay [1] concerns the target T1, Frh complex (FrhABG), F420-reducing [NiFe]-hydrogenase (Methanothermobacter marburgensis, UniProt D9PYF6).
T1 construct: gene frhB; FrhA C-terminus after His386 removed in maturation; FrhG most probably starts at Val39 of the 275-residue annotation; FrhA 45, FrhG 26, FrhB 31 kDa; with Coenzyme F420 hydrogenase subunit alpha; Coenzyme F420 hydrogenase subunit gamma
T1 sequence (D9PYF6 1-281): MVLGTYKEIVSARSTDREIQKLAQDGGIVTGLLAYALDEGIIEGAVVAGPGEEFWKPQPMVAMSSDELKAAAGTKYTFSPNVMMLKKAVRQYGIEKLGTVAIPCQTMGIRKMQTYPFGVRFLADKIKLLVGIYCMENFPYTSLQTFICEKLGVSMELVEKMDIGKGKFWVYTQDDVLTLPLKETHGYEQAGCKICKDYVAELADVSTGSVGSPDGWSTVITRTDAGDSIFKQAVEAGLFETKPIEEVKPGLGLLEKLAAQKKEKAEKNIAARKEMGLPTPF
T1 sequence (D9PYF9 1-386 partner): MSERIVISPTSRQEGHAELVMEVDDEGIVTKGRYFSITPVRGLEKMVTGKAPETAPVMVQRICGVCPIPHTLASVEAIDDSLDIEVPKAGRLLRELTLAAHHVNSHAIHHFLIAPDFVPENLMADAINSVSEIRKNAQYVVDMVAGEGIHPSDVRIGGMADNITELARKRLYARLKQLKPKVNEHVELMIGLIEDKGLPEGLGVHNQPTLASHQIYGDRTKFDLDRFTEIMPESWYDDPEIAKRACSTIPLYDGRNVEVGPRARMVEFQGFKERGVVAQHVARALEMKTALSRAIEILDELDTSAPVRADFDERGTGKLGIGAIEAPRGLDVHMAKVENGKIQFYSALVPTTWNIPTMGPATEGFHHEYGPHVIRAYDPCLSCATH
T1 sequence (D9PYF7 40-275 partner): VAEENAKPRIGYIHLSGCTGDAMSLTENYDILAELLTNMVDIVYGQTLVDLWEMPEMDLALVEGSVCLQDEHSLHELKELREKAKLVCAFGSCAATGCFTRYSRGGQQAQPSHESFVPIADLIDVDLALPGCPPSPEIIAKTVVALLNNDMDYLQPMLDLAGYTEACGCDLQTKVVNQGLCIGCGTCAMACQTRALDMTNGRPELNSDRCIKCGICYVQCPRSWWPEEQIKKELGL
Description: cryo-EM structure (map with versus without F420). The following applies: 0.5, 1.0 or 10 mM F420, oxygen-free; site in FrhB next to FAD isoalloxazine; only the isoalloxazine-like ring modelled, weak density. It counts as binding.

Assay [2] deals with T1, Frh complex (FrhABG), F420-reducing [NiFe]-hydrogenase. As to the kind of experiment: cryo-EM structure. The settings on record: 25 uM FAD in purification buffers; site in FrhB near the [4Fe-4S] cluster; ribose and ribitol density missing. It counts as binding.

On to `C[C@H](OP(=O)(O)OC[C@@H](O)[C@@H](O)[C@@H](O)Cn1c2nc(=O)[nH]c(=O)c-2cc2ccc(O)cc21)C(=O)N[C@@H](CCC(=O)N[C@@H](CCC(=O)O)C(=O)O)C(=O)O` [F420], for which the “cryo-EM structure (map with versus without F420)” value in assay [1] was “We conclude that it represents the isoalloxazine ring of the F420 substrate”.

For the compound `Cc1cc2nc3c(=O)[nH]c(=O)nc-3n(C[C@H](O)[C@H](O)[C@H](O)COP(=O)(O)OP(=O)(O)OC[C@H]3O[C@@H](n4cnc5c(N)ncnc54)[C@H](O)[C@@H]3O)c2cc1C` [FAD], the cryo-EM structure result in assay [2] is recorded as “could be interpreted as the isoalloxazine ring of the FAD cofactor”.

(Values after publication PMC3591093, “De novo modeling of the F420-reducing [NiFe]-hydrogenase from a methanogenic archaeon by cryo-electron microscopy” (eLife, 2013).)
